Experiment [1] has as its target T1, mouse PDGF-β receptor tyrosine kinase (Mus musculus, UniProt P05622).
T1 construct: a fragment of DNA that codes for the intracellular tyrosine kinase domain; made in house; host or cells: Sf9 insect cells (baculovirus), cell lysate
Description: PDGF receptor tyrosine kinase assay. The format is biochemical. The following applies: for IC50: read-out: Inhibition of Protein Tyrosine Kinases, PDGF, IC50; for inhibition at 50 µM: read-out: Inhibition of Protein Tyrosine Kinases, PDGF, % Inhibition. The gist of the method:
(§1)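 Intracellular kinase domains expressed in baculovirus-infected SF9 cells; crude lysate used as enzyme. Inhibitor preincubated 10 min at 25 °C with lysate in pH 7.0 Hepes buffer with 10 mM MnCl2 and poly(Glu-Tyr) 4:1, then γ-32P-ATP (50 μM ATP) added for 10 min at 25 °C. TCA-precipitated 32P on filters counted, no-enzyme background subtracted.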

Experiment [2] relates to PDGF receptor. Description: PDGF receptor autophosphorylation in RASMC. The following applies: PDGF-BB 30 ng/mL, read-out: Inhibition of PDGF Stimulated Receptor Auto Phosphorylation (IC50). It counts as cell-based, rat.
Description: Rat aorta smooth muscle cells (RASMC) were isolated from the thoracic aorta of rats and explanted according to the method of Ross, J. Cell. […] Cells were grown in Dulbecco's modified Eagle's medium (DMEM, Gibco) containing 10% fetal calf serum (FBS, Hyclone, Logan, Utah), 1% glutamine (Gibco) and 1% penicillin/streptomycin (Gibco). Cells were identified as smooth muscle cells by their "hill and valley" growth pattern and by fluorescent staining with a monoclonal antibody specific for SMC μ-actin (Sigma). RASMC were used between passages 5 and 20 for all experiments. Test compounds were prepared in dimethylsulfoxide (DMSO) in order to achieve consistency in the vehicle and to ensure compound solubility. Appropriate DMSO controls were simultaneously evaluated with the test compounds.
PDGF Receptor Autophosphorylation
RASMC were grown to confluency in 100 mm dishes. Growth medium was removed and replaced with serum-free medium and cells were incubated at 37° C. for an additional 24 hours. Test compounds were then added directly to the medium and cells incubated for an additional 2 hours. After 2 hours, PDGF-BB was added at a final concentration of 30 ng/mL for 5 minutes at 37° C. to stimulated autophosphorylation of the PDGF receptor. Following growth factor treatment, the medium was removed, and cells were washed with cold phosphate-buffered saline and immediately lysed with 1 mL of lysis buffer (50 mM HEPES[pH 7.5], 150 mM NaCl, 10% glycerol, 1% Triton X-100, 1 mM EDTA, 1 mMEGTA, 50 mM NaF, 1 mM sodium orthovanadate, 30 mM p-nitrophenyl phosphate, 10 mM sodium pyrophosphate, 1 mM phenylmethyl sulfonyl fluoride, 10 μg/mL aprotinin, and 10 μg/mL leupeptin). Lysates were centrifuged at 10,000×g for 10 minutes. […] Following the incubation, protein-A-sepharose beads were added for 2 hours with continuous mixing, and immune complexes bound to the beads washed 4 times with 1 mL lysis wash buffer. Immune complexes were solubilized in 30 μL of Laemmli sample buffer and electrophoresed in 4-20% SDS polyacrylamide gels. Following electrophoresis, separated proteins were transferred to nitrocellulose and immunoblotted with anti-phosphotyrosine antiserum. […] IC50 values were generated from the densitometric data.
The target in experiment [3] is T2, human FGF-1 (flg) receptor tyrosine kinase (Homo sapiens, UniProt P11362).
T2 construct: a fragment of DNA that codes for the intracellular tyrosine kinase domain; made in house; host or cells: Sf9 insect cells (baculovirus), cell lysate
T2 sequence (P11362 478-767 limits assumed): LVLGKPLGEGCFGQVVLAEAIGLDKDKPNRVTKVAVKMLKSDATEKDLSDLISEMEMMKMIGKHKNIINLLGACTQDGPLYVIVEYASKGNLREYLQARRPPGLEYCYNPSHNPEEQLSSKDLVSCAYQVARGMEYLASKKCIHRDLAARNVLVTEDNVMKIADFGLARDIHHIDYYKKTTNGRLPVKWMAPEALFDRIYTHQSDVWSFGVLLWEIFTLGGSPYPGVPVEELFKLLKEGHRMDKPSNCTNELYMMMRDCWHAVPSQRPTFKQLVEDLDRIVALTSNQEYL
Description: FGF receptor tyrosine kinase assay. The following applies: for IC50: read-out: Inhibition of Protein Tyrosine Kinases, FGF, IC50; for inhibition at 50 µM: read-out: Inhibition of Protein Tyrosine Kinases, FGF, % Inhibition. It counts as biochemical. The gist of the method:
as §1

In experiment [4] the target is T3, C-src kinase (Homo sapiens, UniProt P12931).
T3 construct: made in house; host or cells: baculovirus-infected insect cells
T3 sequence (P12931 whole entry): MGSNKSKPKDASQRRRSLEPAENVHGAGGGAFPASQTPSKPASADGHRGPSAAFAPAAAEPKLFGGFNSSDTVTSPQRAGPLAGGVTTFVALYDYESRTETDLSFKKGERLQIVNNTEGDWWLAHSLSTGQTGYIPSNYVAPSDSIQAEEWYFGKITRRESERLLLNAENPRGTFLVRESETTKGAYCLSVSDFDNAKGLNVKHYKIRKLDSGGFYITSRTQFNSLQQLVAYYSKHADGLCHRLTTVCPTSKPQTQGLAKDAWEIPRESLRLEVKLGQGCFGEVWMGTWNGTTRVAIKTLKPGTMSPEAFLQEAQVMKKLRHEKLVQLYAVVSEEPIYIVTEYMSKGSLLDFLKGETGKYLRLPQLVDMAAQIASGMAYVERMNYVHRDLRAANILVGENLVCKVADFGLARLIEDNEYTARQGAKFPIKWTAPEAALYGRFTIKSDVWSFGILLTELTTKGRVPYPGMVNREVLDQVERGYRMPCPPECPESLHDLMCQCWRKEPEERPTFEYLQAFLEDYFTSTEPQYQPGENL
Description: C-src kinase assay. The format is biochemical. Conditions: for IC50: read-out: Inhibition of Protein Tyrosine Kinases, C-src, IC50; for inhibition at 50 µM: read-out: Inhibition of Protein Tyrosine Kinases, C-src, % Inhibition. In outline: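 Baculovirus-expressed c-src immunopurified on antibody-coated latex beads, assayed in 40 mM Tris pH 7.5, 5 mM MgCl2 with poly GluTyr substrate and 5 μM ATP plus 32P-ATP. Reaction 10 min at room temperature, TCA-quenched, filtered; incorporated label counted by scintillation.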

Experiment [5] addresses T4, Human EGF receptor tyrosine kinase (Homo sapiens, UniProt P00533).
T4 construct: isolated from A431 epidermoid carcinoma cells; endogenous in cells; host or cells: A431 epidermoid carcinoma cells (Triton lysate, wheat germ agglutinin eluate)
Description: EGF receptor tyrosine kinase assay. It counts as biochemical. The following applies: at 50 μM; read-out: Inhibition of Protein Tyrosine Kinases, EGF, % Inhibition. As to the method: Purification of Epidermal Growth Factor Receptor Tyrosine Kinase
Human EGF receptor tyrosine kinase was isolated from A431 epidermoid carcinoma cells by the following methods. Cells were grown in roller bottles in 50% Delbuco's Modified Eagle and 50% HAM F-12 nutrient media (Gibco) containing 10% fetal calf serum. Approximately 10^9 cells were lysed in two volumes of buffer containing 20 mM 2-(4N-[2-hydroxyethyl]piperazin-1-yl)ethanesulfonic acid, pH 7.4, 5 mM ethylene glycol bis(2-aminoethyl ether)N,N,N',N'-tetraacetic acid, 1% Triton X-100, 10% glycerol, 0.1 mM sodium orthovanadate, 5 mM sodium fluoride, 4 mM pyrophosphate, 4 mM benzamide, 1 mM dithiothreitol, 80 μg/mL aprotinin, 40 μg/mL leupeptin, and 1 mM phenylmethylsulfonyl fluoride. After centrifugation at 25,000×g for 10 minutes, the supernatant was equilibrated for 2 hours at 4° C. with 10 mL of wheat germ agglutinin sepharose that was previously equilibrated with 50 mM Hepes, 10% glycerol, 0.1% Triton X-100 and 150 mM NaCl, pH 7.5, (equilibration buffer). Contaminating proteins were washed from the resin with 1M NaCl in equilibration buffer, and the enzyme was eluted with 0.5M N-acetyl-1-D-glucosamine in equilibration buffer.
Determination of IC50 Values
The reaction was terminated by the addition of 2 mL of 75 mM phosphoric acid and passed through a 2.5-cm phosphocellulose filter disc to bind the peptide. The filter was washed five times with 75 mM phosphoric acid and placed in a vial along with 5 mL of scintillation fluid (Ready gel Beckman).

The test system of experiment [6] is V-src kinase. Description: V-src kinase assay. Conditions: at 50 μM. The format is biochemical. The procedure:
V-src and C-src Kinase Assays
V-src or C-src kinase is purified from baculovirus infected insect cell lysates using an antipeptide monoclonal antibody directed against the N-terminal 2-17 amino acids. The antibody, covalently linked to 0.65-μm latex beads, is added to a suspension of insect cell lysis buffer comprised of 150 mM NaCl, 50 mM Tris pH 7.5, 1 mM DTT, 1% NP-40, 2 mM EGTA, 1 mM sodium vanadate, 1 mM PMSF, 1 μg/mL each of leupeptin, pepstatin, and aprotinin. Insect cell lysate containing either the c-src or v-src protein is incubated with these beads for 3-4 hours at 4° C. with rotation. At the end of the lysate incubation, the beads are rinsed 3 times in lysis buffer, resuspended in lysis buffer containing 10% glycerol, and frozen. These latex beads are thawed, rinsed three times in assay buffer which is comprised of 40 mM tris pH 7.5, 5 mM MgCl2, and suspended in the same buffer. In a Millipore 96-well plate with a 0.65 μm polyvinylidine membrane bottom are added the reaction components: 10-μL v-src or c-src beads, 10 μL of 2.5 mg/mL poly GluTyr substrate, 5 μM ATP containing 0.2 μCi labeled ^32 P-ATP, 5μL DMSO containing inhibitors or as a solvent control, and buffer to make the final volume 125 μL. The reaction is started at room temperature by addition of the ATP and quenched 10 minutes later by the addition of 125 μL of 30% TCA, 0.1M sodium pyrophosphate for 5 minutes on ice. The plate is then filtered and the wells washed with two 250-μL aliquots of 15% TCA, 0.1M pyrophosphate. The filters are punched, counted in a liquid scintillation counter, and the data examined for inhibitory activity in comparison to a known inhibitor such as erbstatin. The method is described more fully in J. Med. Chem., 37:598-609 (1994).

T1 sequence (P05622 599-961 limits assumed): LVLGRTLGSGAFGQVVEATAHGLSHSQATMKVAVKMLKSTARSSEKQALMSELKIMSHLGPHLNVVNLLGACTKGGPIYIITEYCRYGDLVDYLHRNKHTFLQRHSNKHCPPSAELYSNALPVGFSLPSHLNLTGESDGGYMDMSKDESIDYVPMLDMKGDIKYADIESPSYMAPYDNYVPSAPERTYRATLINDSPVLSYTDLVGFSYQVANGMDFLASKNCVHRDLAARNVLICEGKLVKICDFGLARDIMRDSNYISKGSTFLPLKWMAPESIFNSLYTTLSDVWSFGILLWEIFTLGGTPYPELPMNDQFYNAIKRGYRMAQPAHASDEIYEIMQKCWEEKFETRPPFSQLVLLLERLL
T4 sequence (P00533 25-1210): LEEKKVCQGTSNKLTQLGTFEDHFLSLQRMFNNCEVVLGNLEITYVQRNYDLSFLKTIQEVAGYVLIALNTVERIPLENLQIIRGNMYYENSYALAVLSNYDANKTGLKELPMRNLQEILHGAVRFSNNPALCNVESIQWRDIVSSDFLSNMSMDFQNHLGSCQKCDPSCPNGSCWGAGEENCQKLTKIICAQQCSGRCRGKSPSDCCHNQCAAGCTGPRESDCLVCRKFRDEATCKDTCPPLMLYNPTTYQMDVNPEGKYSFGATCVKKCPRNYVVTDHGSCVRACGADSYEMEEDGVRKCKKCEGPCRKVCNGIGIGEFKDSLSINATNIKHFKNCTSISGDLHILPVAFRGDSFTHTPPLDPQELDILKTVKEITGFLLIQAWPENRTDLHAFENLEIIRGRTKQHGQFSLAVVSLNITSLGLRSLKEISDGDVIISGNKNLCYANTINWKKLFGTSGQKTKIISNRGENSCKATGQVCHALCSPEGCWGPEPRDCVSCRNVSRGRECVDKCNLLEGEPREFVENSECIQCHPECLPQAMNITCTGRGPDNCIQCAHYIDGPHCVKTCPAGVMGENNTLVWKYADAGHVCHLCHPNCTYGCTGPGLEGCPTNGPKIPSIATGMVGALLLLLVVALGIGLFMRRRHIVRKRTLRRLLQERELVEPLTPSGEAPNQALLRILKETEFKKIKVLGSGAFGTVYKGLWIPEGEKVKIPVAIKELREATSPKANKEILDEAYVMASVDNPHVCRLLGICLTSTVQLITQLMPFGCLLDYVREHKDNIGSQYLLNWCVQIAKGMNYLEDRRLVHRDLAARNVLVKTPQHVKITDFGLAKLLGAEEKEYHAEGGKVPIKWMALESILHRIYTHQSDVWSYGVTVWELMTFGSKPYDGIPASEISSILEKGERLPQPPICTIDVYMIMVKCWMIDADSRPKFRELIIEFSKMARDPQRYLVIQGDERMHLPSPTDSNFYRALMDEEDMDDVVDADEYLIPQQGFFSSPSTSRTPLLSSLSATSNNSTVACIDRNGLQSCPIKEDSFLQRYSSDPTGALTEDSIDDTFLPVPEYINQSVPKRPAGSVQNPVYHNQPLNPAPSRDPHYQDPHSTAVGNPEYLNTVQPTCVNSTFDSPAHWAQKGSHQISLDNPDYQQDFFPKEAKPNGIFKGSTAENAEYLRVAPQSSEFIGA

For orientation: IC50 means the concentration at which inhibition is half-maximal. For `CN(C)CCCNc1ncc2cc(-c3c(Cl)cccc3Cl)c(NC(=O)NC(C)(C)C)nc2n1` [Example 28, 1-tert-Butyl-3-[6-(2,6-dichlorophenyl)-2-(3-dimethylamino-propylamino)-pyrido[2,3-d]pyrimidin-7-yl]-urea], the concentration for half-maximal inhibition (IC50) in experiment [1] was determined as 676 nM; in experiment [2], 1380 nM; in experiment [3], 75 nM; in experiment [4], 117 nM.
In the same order, the values of `CN1CCN(CCCNc2ncc3cc(-c4c(Cl)cccc4Cl)c(NC(=O)Nc4ccccc4)nc3n2)CC1` [Example 51, 1-{6-(2,6-Dichlorophenyl)-2-[3-(4-methyl-piperazin-1-yl)-propylamino]-pyrido[2,3-d]pyrimidin-7-yl}-3-phenyl-urea] are 573 nM, 365 nM, 84 nM and 100 nM.
Turning to `CC(C)(C)NC(=O)Nc1nc2nc(NCCCN3CCOCC3)ncc2cc1-c1c(Cl)cccc1Cl` [Example 59, 1-tert-Butyl-3-[6-(2,6-dichlorophenyl)-2-(3-morpholin-4-yl-propylamino)-pyrido[2,3-d]pyrimidin-7-yl]-urea], the IC50 was found to be 838 nM in experiment [1], 1190 nM in experiment [2], 72 nM in experiment [3] and 85 nM in experiment [4].
On to `CCN(CC)CCNc1ncc2cc(-c3c(Cl)cccc3Cl)c(NC(=O)NC(C)(C)C)nc2n1` [Example 66, 1-tert-Butyl-3-[6-(2,6-dichlorophenyl)-2-(2-diethyl-amino-ethylamino)-pyrido[2,3-d]pyrimidin-7-yl]-urea], for which the 50% inhibitory concentration (IC50) in experiment [1] worked out at 5190 nM; in experiment [2], 5290 nM; in experiment [3], 1280 nM; in experiment [4], 3420 nM.
With `CCNC(=O)Nc1nc2nc(NCCN(CC)CC)ncc2cc1-c1c(Cl)cccc1Cl` [Example 67, 1-[6-(2,6-Dichlorophenyl)-2-(2-diethylamino-ethyl-amino)-pyrido[2,3-d]pyrimidin-7-yl]-3-ethyl-urea], the IC50 was determined as 9420 nM in experiment [2], 1390 nM in experiment [3] and 1560 nM in experiment [4].
As for `CN(C)CCCN(C)c1ncc2cc(-c3c(Cl)cccc3Cl)c(NC(=O)NC(C)(C)C)nc2n1` [Example 69, 1-tert-Butyl-3-{6-(2,6-dichlorophenyl)-2-[(3-dimethyl-amino-propyl)-methyl-amino]-pyrido[2,3-d]pyrimidin-7-yl}-urea], the IC50 in experiment [1] was 15600 nM; in experiment [2], 6460 nM; in experiment [3] it was 1960 nM; in experiment [4] it was 4660 nM.
By inhibition is commonly meant the change of the read-out against control, counted positive when it falls. As to `CN(C)C=Nc1ncc2cc(-c3c(Cl)cccc3Cl)c(NC(=O)NC(C)(C)C)nc2n1` [Example 79, N'-[7-(3-tert-Butylureido)-6-(2,6-dichlorophenyl)-pyrido[2,3-d]pyrimidin-2-yl]-N,N-dimethylformamidine], the values for the IC50 in experiment [1] and in experiment [3] were 17800 nM and 8090 nM, respectively. Besides, the inhibition at 50 µM in experiment [5] is 60.9%.
Regarding `CC(C)NC(=O)Nc1nc2nc(N)ncc2cc1-c1c(Cl)cccc1Cl` [Example 89, 1-[2-Amino-6-(2,6-dichlorophenyl)-pyrido[2,3-d]pyrimidin-7-yl]-3-isopropyl-urea], the IC50 was 857 nM in experiment [1], 1630 nM in experiment [2], 111 nM in experiment [3] and 36 nM in experiment [4].
In the case of `COc1ccccc1-c1cc2cnc(N)nc2nc1N` [Example 100, 6-(2-Methoxy-phenyl)-pyrido[2,3-d]pyrimidine-2,7-diamine], the inhibition at 50 µM in experiment [1] was determined as 22.3%; in experiment [3] it was 27.1%; in experiment [4], 46.6%. In addition, in experiment [6], the “Inhibition of Protein Tyrosine Kinases, V-src, % Inhibition” value (“Inhibition … % Inhibition” for short) is given as 6.0%.
Take `COc1cccc(-c2cc3cnc(N)nc3nc2N)c1` [Example 102, 6-(3-Methoxy-phenyl)-pyrido[2,3-d]pyrimidine-2,7-diamine]: the inhibition at 50 µM in experiment [1] was determined as 44.4%; in experiment [4], 0.8%. Further, the IC50 in experiment [3] was 3110 nM. For the same compound, the “Inhibition … % Inhibition” value in experiment [6] is on record as -8.2%.
For the compound `Nc1ncc2cc(-c3cccnc3)c(N)nc2n1` [Example 107, 6-Pyridin-3-yl-pyrido[2,3-d]pyrimidine-2,7-diamine], the inhibition at 50 µM in experiment [1] was determined as 20.5%; in experiment [3], 37.2%; in experiment [4] it was 37%. Moreover, in experiment [6], the “Inhibition … % Inhibition” value is given as 1.4%.
On to `Nc1ncc2cc(-c3ccccn3)c(N)nc2n1` [Example 111, 6-Pyridin-2-yl-pyrido[2,3-d]pyrimidine-2,7-diamine], for which the IC50 in experiment [1] is 23300 nM. Moreover, the figures for the inhibition at 50 µM in experiment [3] and in experiment [4] were 47.7% and 15.7%, respectively. In addition, in experiment [6], the “Inhibition … % Inhibition” value is listed as -26.4%.
Consider `CCNC(=O)Nc1nc2nc(NCCCN(CC)CC)ncc2cc1-c1c(Cl)cccc1Cl` [Example 112, 1-[6-(2,6-Dichlorophenyl)-2-(3-diethylamino-propyl-amino)-pyrido[2,3-d]pyrimidin-7-yl]-3-ethyl-urea], for which the IC50 in experiment [1] was determined as 1260 nM; in experiment [2] it was 1080 nM; in experiment [3], 128 nM; in experiment [4], 77 nM.
For `CCN(CC)CCCNc1ncc2cc(-c3c(Cl)cccc3Cl)c(NC(=O)NC(C)C)nc2n1` [Example 113, 1-[6-(2,6-Dichlorophenyl)-2-(3-diethylamino-propyl-amino)-pyrido[2,3-d]pyrimidin-7-yl]-3-isopropyl-urea], in that order: 1090 nM, 1100 nM, 77 nM and 78 nM.
On to `CCN(CC)CCCNc1ncc2cc(-c3c(C)cccc3C)c(N)nc2n1` [Example 114, N^2-(3-Diethylamino-propyl)-6-(2,6-dimethyl-phenyl)-pyrido[2,3-d]pyrimidine-2,7-diamine], for which the IC50 came out at 23900 nM in experiment [1], 15900 nM in experiment [2] and 19200 nM in experiment [3].
Consider `CCNC(=O)Nc1nc2nc(NCCCN(CC)CC)ncc2cc1-c1c(C)cccc1C` [Example 115], for which the IC50 in experiment [1] stood at 2630 nM; in experiment [2], 5130 nM; in experiment [3], 1240 nM; in experiment [4], 24 nM.
In the same order, the values of `CCN(CC)CCCNc1ncc2cc(-c3c(C)cccc3C)c(NC(=O)NC(C)(C)C)nc2n1` [Example 116, 1-tert-Butyl-3-[2-(3-diethylamino-propylamino)-6-(2,6-dimethyl-phenyl)-pyrido[2,3-d]pyrimidin-7-yl]-urea] are 804 nM, 910 nM, 335 nM and 98 nM.

The values are drawn from patent US5733913A, “6-Aryl pyrido[2,3-d] pyrimidines and naphthyridines for inhibiting protein tyrosine kinase mediated cellular proliferation” (priority 1995, dated 1998).
